From patent US20250154163A1, “Pyrimidinone-Containing 17-Beta-Hydroxysteroid Dehydrogenase Type 13 Inhibitors” (ENANTA PHARMACEUTICALS, INC., priority 2023, published 2025)

Legend:
[1] = target: T1, Recombinant human 17β-HSD13 (Homo sapiens, UniProt Q7Z5P4); test: 17β-HSD13 rapid-fire mass spectrometry assay (RF/MS assay); assay type: biochemical; conditions: inhibition of 17β-HSD13, RF/MS assay; HSD17B13 80 nM, LTB4 10 μM, NAD+ 0.5 mM, RT 3 h
T1 construct: host or cells: Sf9 insect cells
T1 sequence (Q7Z5P4 20-300): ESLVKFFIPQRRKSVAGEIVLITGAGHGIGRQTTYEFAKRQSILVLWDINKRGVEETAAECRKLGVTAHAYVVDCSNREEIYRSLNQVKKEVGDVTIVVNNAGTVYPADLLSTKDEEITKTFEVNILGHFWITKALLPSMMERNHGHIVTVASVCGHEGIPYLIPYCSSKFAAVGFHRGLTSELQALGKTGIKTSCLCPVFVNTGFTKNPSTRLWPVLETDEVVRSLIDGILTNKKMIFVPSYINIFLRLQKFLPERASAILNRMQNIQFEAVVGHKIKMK
Source text: 17(3-HSD13 rapid-fire mass spectrometry assay (RF/MS assay). Recombinant human 17β-HSD13 was expressed and purified from sf9 cells at Charles River Labs (Saffron Walden, UK). Leukotriene B4 (Catalog #71160-24-2) and 12-oxoleukotriene B4 (Catalog #20140) were purchased from Cayman Chemicals (Ann Arbor, MI). NAD+ (Catalog #N8285), BSA (Catalog #A7030), DMSO (Catalog #D2650), and Tween-20 (Catalog #11332465001) were purchased from Sigma (St. Louis, MO). Formic acid (Catalog #28905) was from ThermoFisher Scientific and 384 deep well PP microplates (Catalog #784261) were from Greiner Bio-One. In a typical IC50 assay performed in a 384w PP microplate, test compounds (0-100 μM) were incubated with HSD17B13 (80 nM), LTB4 (10 μM), and NAD^+ (0.5 mM) in 10 μL assay buffer (20 mM Tris (pH 7.5), BSA (0.005%), and Tween-20 (0.01%)) at RT for 3 h. The assays were quenched by adding 20 μL of 0.15% aqueous formic acid and the plates were frozen at −80° C. RF/MS analysis was performed at PureHoney Technologies (Billerica, MA) on a RapidFire RF300 system (Agilent Technologies, Inc.) coupled to an API 4000 triple quadrupole mass spectrometer (Sciex) equipped with Agilent RapidFire cartridge type A (C4). The mobile phase was 0.09% formic acid and 0.01% trifluoracetic acid in water (Buffer A) and 0.09% formic acid and 0.01% trifluoracetic acid in 80% aqueous acetonitrile (Buffer B). The RapidFire method conditions were the following: 250 ms aspirate, 3000 ms load/desalt, 4000 ms elute, and 500 ms re-equilibrate. RF-MS/MS was performed in negative polarity (−4500 V), the source temperature was 650° C., and gas 1 and gas 2 settings for nitrogen were set to 50. The curtain gas and collision gas were also nitrogen and were set to 20 and 12, respectively. Leukotriene B4 (335.3) and 12-oxoLeukotriene B4 (333.3) SRM transitions were optimized with Discovery Quant software and extracted ion counts for these analytes were determined.
Data Analysis. 17β-HSD13 enzyme activity was measured as percent conversion of extracted ion counts and normalized to high and low controls to determine percent residual activity at various concentrations of test compounds. Data was fitted to normalized activity (variable slope) versus concentration fit in GraphPad Prism 7 to determine IC50. All experiments were run in duplicates.
By using the above method, the inhibition of 17β-HSD13 was evaluated for the compounds of Formula (I). IC50 ranges are as follows: A is <0.1 μM; B is 0.1 μM-1.0 μM; C is 1.0 μM-10 μm; and D is >10 μM.

[2] = target: T2, human HSD17β13 (stable HEK293T cell line overexpressing human HSD17β13) (Homo sapiens, UniProt Q7Z5P4); test: HSD17β13 inhibitor cell-based screening assay (conversion of estradiol-d2 to estrone-d2 by RF-MS); conditions: conversion of estradiol-d2 to estrone-d2 after 24 hours
T2 construct: expressed in transfected cells
T2 sequence (Q7Z5P4 20-300): T1 sequence (Q7Z5P4 20-300)
Method in brief: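 Cellular IC50 is based on 24-h conversion of estradiol-d2 (5 μM final) to estrone-d2, measured by RF-MS in acetonitrile-precipitated supernatants. Assay uses human HSD17β13-overexpressing HEK293T cells (7.5E3/well, 1% charcoal/dextran FBS MEM), with compounds dosed as a 9-point 1:3 series to 10 μM final. ATPlite luminescence on overexpressing and parent lines measured viability.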

IC50 [1] [nM] | IC50 [2] [nM] | Structure (SMILES)
> 10000 | 1000 to 100000 | COC(=O)c1cccc2c1sc1nc(-c3ccc(OC)cc3C3CC3)n(Cc3cnco3)c(=O)c12 [Example 1, methyl 2-(2-cyclopropyl-4-methoxyphenyl)-3-(oxazol-5-ylmethyl)-4-oxo-3,4-dihydrobenzo[4,5]thieno[2,3-d]pyrimidine-8-carboxylate]
100 to 1000 | 1000 to 100000 | COc1ccc(-c2nc3sc4c(C(=O)O)cccc4c3c(=O)n2Cc2cnco2)c(C2CC2)c1 [Example 2, 2-(2-cyclopropyl-4-methoxyphenyl)-3-(oxazol-5-ylmethyl)-4-oxo-3,4-dihydrobenzo[4,5]thieno[2,3-d]pyrimidine-8-carboxylic acid]
1000 to 10000 | 1000 to 100000 | COc1ccc(-c2nc3sc4c(C(N)=O)cccc4c3c(=O)n2Cc2cnco2)c(C2CC2)c1 [Example 3, 2-(2-cyclopropyl-4-methoxyphenyl)-3-(oxazol-5-ylmethyl)-4-oxo-3,4-dihydrobenzo[4,5]thieno[2,3-d]pyrimidine-8-carboxamide]
> 10000 | 1000 to 100000 | COc1ccc(-c2nc3sc4c(NC(C)=O)cccc4c3c(=O)n2Cc2cnco2)c(C2CC2)c1 [Example 4, N-(2-(2-cyclopropyl-4-methoxyphenyl)-3-(oxazol-5-ylmethyl)-4-oxo-3,4-dihydrobenzo[4,5]thieno[2,3-d]pyrimidin-8-yl)acetamide]
> 10000 | 1000 to 100000 | COc1ccc(-c2nc3sc4c(N(C(C)=O)C(C)=O)cccc4c3c(=O)n2Cc2cnco2)c(C2CC2)c1 [Example 5, N-acetyl-N-(2-(2-cyclopropyl-4-methoxyphenyl)-3-(oxazol-5-ylmethyl)-4-oxo-3,4-dihydrobenzo[4,5]thieno[2,3-d]pyrimidin-8-yl)acetamide]
> 10000 | 1000 to 100000 | COc1ccc(-c2nc3sc4c(N)cccc4c3c(=O)n2Cc2cnco2)c(C2CC2)c1 [Example 6, 8-amino-2-(2-cyclopropyl-4-methoxyphenyl)-3-(oxazol-5-ylmethyl)benzo[4,5]thieno[2,3-d]pyrimidin-4(3H)-one]
> 10000 | 1000 to 100000 | COc1ccc(-c2nc3sc4c(NS(C)(=O)=O)cccc4c3c(=O)n2Cc2cnco2)c(C2CC2)c1 [Example 7, N-(2-(2-cyclopropyl-4-methoxyphenyl)-3-(oxazol-5-ylmethyl)-4-oxo-3,4-dihydrobenzo[4,5]thieno[2,3-d]pyrimidin-8-yl)methanesulfonamide]
> 10000 | 1000 to 100000 | COc1ccc(-c2nc3sc4c(OC)cccc4c3c(=O)n2Cc2cnco2)c(C2CC2)c1 [Example 8, 2-(2-cyclopropyl-4-methoxyphenyl)-8-methoxy-3-(oxazol-5-ylmethyl)benzo[4,5]thieno[2,3-d]pyrimidin-4(3H)-one]
> 10000 | 1000 to 100000 | COc1ccc(-c2nc3sc4c(-c5ncco5)cccc4c3c(=O)n2Cc2cnco2)c(C2CC2)c1 [Example 9, 2-(2-cyclopropyl-4-methoxyphenyl)-8-(oxazol-2-yl)-3-(oxazol-5-ylmethyl)benzo[4,5]thieno[2,3-d]pyrimidin-4(3H)-one]
> 10000 | 100 to 500 | CCCCc1cccc2c1sc1nc(-c3ccc(OC)cc3C3CC3)n(Cc3cnco3)c(=O)c12 [Example 10, 8-butyl-2-(2-cyclopropyl-4-methoxyphenyl)-3-(oxazol-5-ylmethyl)benzo[4,5]thieno[2,3-d]pyrimidin-4(3H)-one]
100 to 1000 | 500 to 1000 | COc1ccc(-c2nc3sc4c(B(O)O)cccc4c3c(=O)n2Cc2cnco2)c(C2CC2)c1 [Example 11, (2-(2-cyclopropyl-4-methoxyphenyl)-3-(oxazol-5-ylmethyl)-4-oxo-3,4-dihydrobenzo[4,5]thieno[2,3-d]pyrimidin-8-yl)boronic acid]
> 10000 | 1000 to 100000 | COc1ccc(-c2nc3sc4c(F)cccc4c3c(=O)n2Cc2cnco2)c(C2CC2)c1 [Example 13, 2-(2-cyclopropyl-4-methoxyphenyl)-8-fluoro-3-(oxazol-5-ylmethyl)benzo[4,5]thieno[2,3-d]pyrimidin-4(3H)-one]
> 10000 | 1000 to 100000 | C=Cc1cccc2c1sc1nc(-c3ccc(OC)cc3C3CC3)n(Cc3cnco3)c(=O)c12 [Example 14, 2-(2-cyclopropyl-4-methoxyphenyl)-3-(oxazol-5-ylmethyl)-8-vinylbenzo[4,5]thieno[2,3-d]pyrimidin-4(3H)-one]
> 10000 | 1000 to 100000 | COc1ccc(-c2nc3sc4c(C=O)cccc4c3c(=O)n2Cc2cnco2)c(C2CC2)c1 [Example 15, 2-(2-cyclopropyl-4-methoxyphenyl)-3-(oxazol-5-ylmethyl)-4-oxo-3,4-dihydrobenzo[4,5]thieno[2,3-d]pyrimidine-8-carbaldehyde]
> 10000 | 1000 to 100000 | COc1ccc(-c2nc3sc4c(C(F)F)cccc4c3c(=O)n2Cc2cnco2)c(C2CC2)c1 [Example 16, 2-(2-cyclopropyl-4-methoxyphenyl)-8-(difluoromethyl)-3-(oxazol-5-ylmethyl)benzo[4,5]thieno[2,3-d]pyrimidin-4(3H)-one]
1000 to 10000 | 1000 to 100000 | COc1ccc(-c2nc3sc4c(O[C@@H]5O[C@H](C(=O)O)[C@@H](O)[C@H](O)[C@H]5O)cccc4c3c(=O)n2Cc2cnco2)c(C2CC2)c1 [Example 17, (2S,3S,4S,5R,6S)-6-((2-(2-cyclopropyl-4-methoxyphenyl)-3-(oxazol-5-ylmethyl)-4-oxo-3,4-dihydrobenzo[4,5]thieno[2,3-d]pyrimidin-8-yl)oxy)-3,4,5-trihydroxytetrahydro-2H-pyran-2-carboxylic acid]
100 to 1000 | 100 to 500 | COc1ccc(-c2nc3sc4c(O)c(Cl)cc(Cl)c4c3c(=O)n2Cc2cnco2)c(C2CC2)c1 [Example 18, 5,7-dichloro-2-(2-cyclopropyl-4-methoxyphenyl)-8-hydroxy-3-(oxazol-5-ylmethyl)benzo[4,5]thieno[2,3-d]pyrimidin-4(3H)-one]
100 to 1000 | 100 to 500 | COc1cc(C2CC2)c(-c2nc3sc4c(O)c(Cl)cc(Cl)c4c3c(=O)n2Cc2cnco2)cc1Cl [Example 19, 5,7-dichloro-2-(5-chloro-2-cyclopropyl-4-methoxyphenyl)-8-hydroxy-3-(oxazol-5-ylmethyl)benzo[4,5]thieno[2,3-d]pyrimidin-4(3H)-one]
> 10000 | 1000 to 100000 | COc1ccc(-c2nc3sc4c(OCCO)cccc4c3c(=O)n2Cc2cnco2)c(C2CC2)c1 [Example 20, 2-(2-cyclopropyl-4-methoxyphenyl)-8-(2-hydroxyethoxy)-3-(oxazol-5-ylmethyl)benzo[4,5]thieno[2,3-d]pyrimidin-4(3H)-one]
100 to 1000 | 1000 to 100000 | C=CCc1ccc2c(sc3nc(-c4ccc(OC)cc4C4CC4)n(Cc4cnco4)c(=O)c32)c1O [Example 21, 7-allyl-2-(2-cyclopropyl-4-methoxyphenyl)-8-hydroxy-3-(oxazol-5-ylmethyl)benzo[4,5]thieno[2,3-d]pyrimidin-4(3H)-one]
1000 to 10000 | 1000 to 100000 | CCCc1ccc2c(sc3nc(-c4ccc(OC)cc4C4CC4)n(Cc4cnco4)c(=O)c32)c1O [Example 22, 2-(2-cyclopropyl-4-methoxyphenyl)-8-hydroxy-3-(oxazol-5-ylmethyl)-7-propylbenzo[4,5]thieno[2,3-d]pyrimidin-4(3H)-one]
